Measurements from ChEMBL document CHEMBL3785006, “Discovery of 2-Indole-acylsulfonamide Myeloid Cell Leukemia 1 (Mcl-1) Inhibitors Using Fragment-Based Methods” (J Med Chem, 2016).

Tests used:
[1] = biological target: T1, Induced myeloid leukemia cell differentiation protein Mcl-1 (Homo sapiens, UniProt Q07820)
[2] = biological target: T1, Induced myeloid leukemia cell differentiation protein Mcl-1; remark: listed apart in the source
[3] = biological target: T1, Induced myeloid leukemia cell differentiation protein Mcl-1; remark: listed apart in the source
[4] = biological target: Bcl-2-like protein 1 (Homo sapiens, UniProt Q07817)
Chain of Bcl-2-like protein 1 (Q07817 whole entry): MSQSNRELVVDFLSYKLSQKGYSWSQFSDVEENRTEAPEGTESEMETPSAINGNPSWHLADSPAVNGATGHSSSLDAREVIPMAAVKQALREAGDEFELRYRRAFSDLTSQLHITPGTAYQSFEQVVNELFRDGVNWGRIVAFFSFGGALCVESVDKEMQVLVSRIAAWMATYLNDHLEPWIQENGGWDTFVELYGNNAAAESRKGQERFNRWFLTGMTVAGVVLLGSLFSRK

[5] = biological target: T1, Induced myeloid leukemia cell differentiation protein Mcl-1; remark: listed apart in the source

T1 sequence (Q07820 whole entry): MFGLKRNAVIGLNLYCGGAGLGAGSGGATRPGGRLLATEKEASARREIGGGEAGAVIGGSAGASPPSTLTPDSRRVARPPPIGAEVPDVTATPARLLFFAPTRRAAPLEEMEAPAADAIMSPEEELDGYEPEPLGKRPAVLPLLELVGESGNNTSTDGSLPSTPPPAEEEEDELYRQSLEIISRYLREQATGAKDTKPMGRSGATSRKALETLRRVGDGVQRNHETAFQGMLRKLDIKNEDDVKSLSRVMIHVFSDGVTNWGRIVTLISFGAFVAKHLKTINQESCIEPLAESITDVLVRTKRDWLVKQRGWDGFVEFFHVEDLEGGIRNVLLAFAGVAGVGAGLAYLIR

Ki [1] | Ki [2] | Ki [3] | Ki [4] | Kd [5] | SMILES
 |  |  |  | 1500 µM | Oc1ccccc1-c1cc(C(F)(F)C(F)(F)F)[nH]n1
< 0.01 µM | 0.084 µM | 0.0024 µM | > 50 µM |  | Cc1cc(OCCCc2c(C(=O)NS(=O)(=O)c3ccc(C(=O)NCc4ccccc4)o3)[nH]c3c(-c4c(C)nn(C)c4C)c(Cl)ccc23)cc(C)c1Cl
< 0.01 µM | 0.02 µM | 0.0085 µM | > 50 µM |  | Cc1cc(OCCCc2c(C(=O)NS(=O)(=O)c3ccc(C(=O)NCc4ccncc4)o3)[nH]c3c(-c4c(C)nn(C)c4C)c(Cl)ccc23)cc(C)c1Cl
< 0.01 µM | 0.078 µM | 0.0012 µM | 1.11 µM |  | Cc1cc(OCCCc2c(C(=O)NS(=O)(=O)c3ccnc(NCCc4ccccc4)c3)[nH]c3c(-c4c(C)nn(C)c4C)c(Cl)ccc23)cc(C)c1Cl

Further lines, the compound ahead of its results:

SMILES | Ki [1] | Ki [2] | Ki [3] | Ki [4] | Kd [5]
Cc1cc(OCCCc2c(C(=O)NS(=O)(=O)c3cccc(CNC(=O)c4cccn4C)c3)[nH]c3c(-c4c(C)nn(C)c4C)c(Cl)ccc23)cc(C)c1Cl | < 0.01 µM | 0.091 µM | 0.01 µM | > 50 µM | 
Cc1cc(OCCCc2c(C(=O)NS(=O)(=O)c3ccnc(N(C)CCc4ccccc4)c3)[nH]c3c(-c4c(C)nn(C)c4C)c(Cl)ccc23)cc(C)c1Cl | < 0.01 µM | 0.226 µM | 0.0025 µM | 0.943 µM | 
Cc1cc(OCCCc2c(C(=O)NS(=O)(=O)c3ccnc(NC4Cc5ccccc5C4)c3)[nH]c3c(-c4c(C)nn(C)c4C)c(Cl)ccc23)cc(C)c1Cl | < 0.01 µM | 0.061 µM | 0.001 µM | 0.997 µM | 
Cc1cc(OCCCc2c(C(=O)NS(=O)(=O)c3cccc(CNC(=O)c4ccoc4)c3)[nH]c3c(-c4c(C)nn(C)c4C)c(Cl)ccc23)cc(C)c1Cl | < 0.01 µM | 0.069 µM | 0.0029 µM | 1.4 µM | 
Cc1cc(OCCCc2c(C(=O)NS(=O)(=O)c3cccc(CNC(=O)c4ccccc4C(F)(F)F)c3)[nH]c3c(-c4c(C)nn(C)c4C)c(Cl)ccc23)cc(C)c1Cl | < 0.01 µM | 0.08 µM | 0.005 µM | 4.47 µM | 
Cc1cc(OCCCc2c(C(=O)NS(=O)(=O)c3cccc(CNC(=O)c4cccc(C(F)(F)F)c4)c3)[nH]c3c(-c4c(C)nn(C)c4C)c(Cl)ccc23)cc(C)c1Cl | < 0.01 µM | 0.078 µM | 0.007 µM | 12.9 µM | 
CC(=O)NCc1cccc(S(=O)(=O)NC(=O)c2[nH]c3c(-c4c(C)nn(C)c4C)c(Cl)ccc3c2CCCOc2cc(C)c(Cl)c(C)c2)c1 | < 0.01 µM | 0.042 µM | 0.0111 µM | 9.07 µM | 
Cc1cc(OCCCc2c(C(=O)NS(=O)(=O)c3cccc(CNC(=O)C(C)C)c3)[nH]c3c(-c4c(C)nn(C)c4C)c(Cl)ccc23)cc(C)c1Cl | < 0.01 µM | 0.054 µM | 0.016 µM | > 50 µM | 
